Test results from patent US10259781B2, “Imaging agents” (THE REGENTS OF THE UNIVERSITY OF MICHIGAN, priority 2012, dated 2019).
“Also recorded” adds a separate entry of the source.

How the values were obtained:
[1] = system: cardiac sympathetic neurons; assay: Isolated working rat heart model: neuronal uptake and clearance kinetics
Experimental: The radiotracer was infused into the heart for 10 minutes to measure the tracer uptake rate into cardiac sympathetic neurons (Kup, shown in units of ml/min/g tissue wet). Then, the heart was infused with normal heart perfusate to measure the tracer clearance rate from the heart over 2 hours.
Experiments were conducted to test ^11C-phenoxyethylguanidine (PEG), e.g., to establish baseline values for the NET transport rate (Kup, expressed in units of mL perfusate/min/g wet) and the clearance rate from sympathetic neurons (T1/2, expressed in units of hours).

[2] = system: cardiac sympathetic nerve terminals; assay: MicroPET imaging and myocardial kinetics (compartmental modeling, Patlak graphical analysis) in monkeys; assay type: in vivo, rhesus macaque monkey
Experimental: A series of microPET imaging studies were performed in the macaque model to assess image quality and tracer kinetics. In most of these the time course of the metabolic breakdown of [^18F]4F-MHPG in plasma was also determined. The studies are summarized below in Table 1.
During the development of embodiments of the technology provided herein, the kinetics of [^18F]4F-MHPG in monkey hearts was assessed using either compartmental modeling or Patlak graphical analysis to obtain quantitative measures of regional cardiac sympathetic nerve density.
For some analyses, a simplified compartmental model that assumed irreversible trapping inside nerve terminals was used to estimate the model rate constants K1 (ml/min/g), k2 (min^−1), k3 (min^−1), and a blood volume fraction BV (dimensionless) (see, e.g., FIG. 7). In both the control studies and DMI blocking studies, the model quickly converged to a single global minimum in just a few iterations of the nonlinear regression analysis (FIG. 8). […] This aggregate parameter provides a stable measure of cardiac nerve density that declined in a dose-dependent manner with increasing DMI dose (FIG. 9, “Kinetic modeling”).
For some analyses, Patlak graphical analysis was used, which uses a mathematical transformation of the kinetic data Cp(t) and Ct(t) to generate a Tatlak plot′ having a characteristic linear phase (see, e.g., Patlak and Blasberg (1985) “Graphical evaluation of blood-to-brain transfer constants from multiple-time uptake data. Generalizations.” J Cereb Blood Flow 5: 584-90). The slope of the linear portion of a Patlak plot, Kp (ml/min/g), provides an alternate estimate of the ‘net uptake rate constant’ Ki (ml/min/g). Thus, for the model structure used (FIG. 7), the slope of the Patlak plot is given by Kp≈(K1k3)/(k2+k3).
During the development of embodiments of the technology provided herein, the myocardial kinetics of [^18F]4F-MHPG was assessed using Patlak graphical analysis and metabolite-corrected plasma input functions. In this example, the Patlak plot is highly linear (r^2=1.00) and the estimated Patlak slope Kpatlak=0.252 ml/min/g. […] As such, regional estimates of the Patlak slope from Patlak analysis of the kinetics of [^18F]4F-MHPG serve as robust measures of regional cardiac sympathetic nerve density in patients with heart diseases.

[3] = Metabolic breakdown in monkey plasma (reverse-phase HPLC of venous blood samples); assay type: in vivo, rhesus macaque monkey; settings: rhesus monkeys
Experimental: In some of the microPET studies, venous blood samples (e.g., n=6) were drawn to assess the metabolic breakdown of [^18F]4F-MHPG in plasma (see Table 1). Plasma was processed for injection onto a reverse-phase HPLC system equipped with a radiation detector. The percentages of intact parent tracer and radiolabeled metabolites were determined as a function of time. In this system, [^18F]4-MHPG has a retention time Rt of approximately 11.2 minutes while the main polar radiometabolite formed has an Rt of approximately 7.9 minutes.

adrenal glands = assay: Uptake into adrenal glands, microPET; assay type: in vivo, rhesus macaque monkey; settings: DMI block of NET
Text: To assess the ability of [^18F]4F-MHPG to serve an additional clinical role as a marker of adrenergic tumors such as neuroblastoma and pheochromocytoma, data were collected to examine the uptake of [^18F]4F-MHPG into the adrenal gland. In control studies, the adrenal glands took up sufficient [^18F]4F-MHPG to be visualized, especially on the right side of the transaxial images, which was better separated from the kidney than the contralateral adrenal gland. There was also significant uptake in the cortex of the kidney. The kinetics of [^18F]4F-MHPG in the adrenal gland are very similar to those seen in the heart. In the DMI block study above, the adrenal glands were scanned for 10 minutes following the 90 minute cardiac study.

[4] = MicroPET imaging studies in rats: excretion through the bladder; assay type: in vivo, rat
Experimental: During the development of embodiments of the technology provided herein, the biodistribution of [^18F]4F-MHPG into the organs of rats was assessed. In particular, four time points (Table 3) were collected and used to derive human radiation absorbed dose estimates using the OLINDA/EXM 1.0 software package (see, e.g., Stabin et al. (2005) “OLINDA/EXM; the second-generation personal computer software for internal dose assessment in nuclear medicine”, J Nucl Med. 46: 1023-7). […] These values were entered into the Dynamic Bladder model of OLINDA/EXM, assuming a 4.0-hour void interval. Organs with the highest absorbed dose estimates included the urinary bladder wall (0.666 rad/mCi), […] (0.221 rad/mCi), small intestine (0.201 rad/mCi), and the heart wall (0.201 rad/mCi). An ‘effective dose’ of 0.091 rem/mCi was estimated for [^18F]4F-MHPG. Under United States Federal Regulations governing research with a new radiopharmaceutical (21 CFR § 361.1), the maximum allowable radiation absorbed dose to an individual organ (other than the gonads) is 5 rad. Considering the maximum estimated absorbed dose (urinary bladder wall; 0.666 rad/mCi), initial PET studies in human subjects could use a maximum of 7.5 mCi of [^18F]4F-MHPG. This would correspond to an ‘effective dose’ of 0.68 rem.

N=C(N)NCCc1ccc(F)c(O)c1 [[^18F]4F-MHPG] [4-[^18F]fluoro-meta-hydroxy-phenethylguanidine]
kinetics compared with [11C]4F-MHPG [1]: almost identical | net uptake rate constant Ki = (K1k3)/(k2+k3) ([2]; compartmental modeling, control studies, monkey heart): 0.341 ± 0.041 mL/min/g | average measured Patlak slope Kp ([2]; control studies, FIG. 11): 0.302 ± 0.031 mL/min/g | in vivo defluorination ([2]; faint uptake in spinal column bones): little in vivo defluorination | liver uptake compared with [11C]HED or [123I]MIBG ([2]; microPET control studies): much lower | uptake in the lungs and liver ([2]; microPET control studies): very low uptake | estimated Patlak slope Kpatlak ([2]; one control study, rhesus macaque, FIG. 10): 0.252 mL/min/g | metabolism in plasma [3]: rapidly metabolized | uptake into the adrenal glands under DMI block (adrenal glands): No uptake; also recorded: completely absent | biological half-time of excretion through the bladder [4]: 0.20±0.02 hours | injected dose excreted through the bladder [4]: 19.9±0.2%
